Results reported in patent publication US11541107B2, “Peptides and T cells for use in immunotherapeutic treatment of various cancers” (Immatics Biotechnologies GmbH, priority 2015, dated 2023).

Tests used:
HLA-A*02 = HLA-A*02 (Homo sapiens, UniProt P04439, D140Y/D185E/D98H/E176V/E277Q/G131W/G231S/I119V/I121R/I166T/I218V/L300P/N151K/N90K/P208A/P217A/Q86G/Q94H/R138H/R169H); assay: MHC binding assay, UV-ligand exchange with beta2m ELISA, HLA-A*02; conditions: binding to HLA-A*02 ranged by peptide exchange yield (UV-ligand exchange, beta2m ELISA)
Description: Candidate peptides for T cell based therapies according to the present invention were further tested for their MHC binding capacity (affinity). The individual peptide-MHC complexes were produced by UV-ligand exchange, where a UV-sensitive peptide is cleaved upon UV-irradiation, and exchanged with the peptide of interest as analyzed. Only peptide candidates that can effectively bind and stabilize the peptide-receptive MHC molecules prevent dissociation of the MHC complexes. To determine the yield of the exchange reaction, an ELISA was performed based on the detection of the light chain (ß2 m) of stabilized MHC complexes. The assay was performed as generally described in Rodenko et al. (Rodenko et al., 2006).
96 well MAXISorp plates (NUNC) were coated over night with 2 ug/ml streptavidin in PBS at room temperature, washed 4× and blocked for 1 h at 37° C. in 2% BSA containing blocking buffer. […] Peptide-MHC monomers of the UV-exchange reaction were diluted 100 fold in blocking buffer. Samples were incubated for 1 h at 37° C., washed four times, incubated with 2 ug/ml HRP conjugated anti-β2 m for 1h at 37° C., washed again and detected with TMB solution that is stopped with […]. Absorption was measured at 450 nm. Candidate peptides that show a high exchange yield (preferably higher than 50%, most preferred higher than 75%) are generally preferred for a generation and production of antibodies or fragments thereof, and/or T cell receptors or fragments thereof, as they show sufficient avidity to the MHC molecules and prevent dissociation of the MHC complexes.

HLA-A*24 = assay: MHC binding assay, UV-ligand exchange with beta2m ELISA, HLA-A*24; set-up: species or system human; conditions: binding to HLA-A*24 ranged by peptide exchange yield (UV-ligand exchange, beta2m ELISA)
In short: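 Peptide–MHC complexes made by UV-ligand exchange of a UV-cleavable peptide. Exchange yield measured by ELISA: monomers diluted 100-fold on streptavidin-coated plates, 1 h at 37°C, detected with HRP anti-β2m (2 ug/ml) and TMB, absorbance at 450 nm.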

In the case of “1 (PLWGKVFYL; listed as Homo sapiens) [compound 1]”, the Peptide exchange (HLA-A*02) is reported as “++ (20%-49% = ++)”.
“3 (TLLGKQVTL; listed as Homo sapiens) [compound 3]” was tested, and the Peptide exchange (HLA-A*02) was “+++ (50%-75% = +++)”.
In the case of “4 (ELAEIVFKV; listed as Homo sapiens) [compound 4]”, the Peptide exchange (HLA-A*02) is reported as “+++ (50%-75% = +++)”.
With “5 (SLFGQEVYC; listed as Homo sapiens) [compound 5]” the Peptide exchange (HLA-A*02) was “+++ (50%-75% = +++)”.
With “6 (FLDPAQRDL; listed as Homo sapiens) [compound 6]” the Peptide exchange (HLA-A*02) was “+++ (50%-75% = +++)”.
“8 (KLGPFLLNA; listed as Homo sapiens) [compound 8]” was tested, and the Peptide exchange (HLA-A*02) was “+++ (50%-75% = +++)”.
In the case of “10 (KTLDVFNIIL; listed as Homo sapiens) [compound 10]”, the Peptide exchange (HLA-A*02) is reported as “++ (20%-49% = ++)”.
For “11 (GVLKVFLENV; listed as Homo sapiens) [compound 11]”, the Peptide exchange (HLA-A*02) was “++ (20%-49% = ++)”.
“12 (GLIYEETRGV; listed as Homo sapiens) [compound 12]” was tested, and the Peptide exchange (HLA-A*02) was “++ (20%-49% = ++)”.
With “13 (VLRDNIQGI; listed as Homo sapiens) [compound 13]” the Peptide exchange (HLA-A*02) was “+++ (50%-75% = +++)”.
“14 (LLDHLSFINKI; listed as Homo sapiens) [compound 14]” was tested, and the Peptide exchange (HLA-A*02) was “++ (20%-49% = ++)”.
With “16 (HLYNNEEQV; listed as Homo sapiens) [compound 16]” the Peptide exchange (HLA-A*02) was “++ (20%-49% = ++)”.
For “18 (YVLNEEDLQKV; listed as Homo sapiens) [compound 18]”, the Peptide exchange (HLA-A*02) was “+++ (50%-75% = +++)”.
With “19 (TLLPTVLTL; listed as Homo sapiens) [compound 19]” the Peptide exchange (HLA-A*02) was “+++ (50%-75% = +++)”.
In the case of “20 (ALDGHLYAI; listed as Homo sapiens) [compound 20]”, the Peptide exchange (HLA-A*02) is reported as “+++ (50%-75% = +++)”.
In the case of “21 (SLYHRVLLY; listed as Homo sapiens) [compound 21]”, the Peptide exchange (HLA-A*02) is reported as “++++ (>=75% = ++++)”.
With “22 (MLSDLTLQL; listed as Homo sapiens) [compound 22]” the Peptide exchange (HLA-A*02) was “++++ (>=75% = ++++)”.
In the case of “23 (AQTVVVIKA; listed as Homo sapiens) [compound 23]”, the Peptide exchange (HLA-A*02) is reported as “+ (<20% = +)”.
For “24 (FLWNGEDSAL; listed as Homo sapiens) [compound 24]”, the Peptide exchange (HLA-A*02) was “+++ (50%-75% = +++)”.
“25 (IQADDFRTL; listed as Homo sapiens) [compound 25]” was tested, and the Peptide exchange (HLA-A*02) was “++ (20%-49% = ++)”.
“26 (KVDGVVIQL; listed as Homo sapiens) [compound 26]” was tested, and the Peptide exchange (HLA-A*02) was “+++ (50%-75% = +++)”.
“27 (KVFGDLDQV; listed as Homo sapiens) [compound 27]” was tested, and the Peptide exchange (HLA-A*02) was “+++ (50%-75% = +++)”.
In the case of “28 (TLYSMDLMKV; listed as Homo sapiens) [compound 28]”, the Peptide exchange (HLA-A*02) is reported as “+++ (50%-75% = +++)”.
“29 (TLCNKTFTA; listed as Homo sapiens) [compound 29]” was tested, and the Peptide exchange (HLA-A*02) was “+++ (50%-75% = +++)”.
“313 (KYTHFIQSF; listed as Homo sapiens) [compound 313]” was tested, and the Peptide exchange (HLA-A*24) was “++++ (>=75% = ++++)”.
With “314 (RYFKGDYSI; listed as Homo sapiens) [compound 314]” the Peptide exchange (HLA-A*24) was “+++ (50%-75% = +++)”.
With “315 (FYIPHVPVSF; listed as Homo sapiens) [compound 315]” the Peptide exchange (HLA-A*24) was “+++ (50%-75% = +++)”.
In the case of “316 (VYFEGSDFKF; listed as Homo sapiens) [compound 316]”, the Peptide exchange (HLA-A*24) is reported as “+++ (50%-75% = +++)”.
For “317 (VFDTSIAQLF; listed as Homo sapiens) [compound 317]”, the Peptide exchange (HLA-A*24) was “+++ (50%-75% = +++)”.
In the case of “318 (TYSNSAFQYF; listed as Homo sapiens) [compound 318]”, the Peptide exchange (HLA-A*24) is reported as “+++ (50%-75% = +++)”.
For “319 (KYSDVKNLI; listed as Homo sapiens) [compound 319]”, the Peptide exchange (HLA-A*24) was “++++ (>=75% = ++++)”.
For “341 (SYLTQHQRI; listed as Homo sapiens) [compound 341]”, the Peptide exchange (HLA-A*24) was “+++ (50%-75% = +++)”.
With “342 (NYAFLHRTL; listed as Homo sapiens) [compound 342]” the Peptide exchange (HLA-A*24) was “+++ (50%-75% = +++)”.
“343 (NYLGGTSTI; listed as Homo sapiens) [compound 343]” was tested, and the Peptide exchange (HLA-A*24) was “+++ (50%-75% = +++)”.
“345 (EYNSDLHQFF; listed as Homo sapiens) [compound 345]” was tested, and the Peptide exchange (HLA-A*24) was “+++ (50%-75% = +++)”.
For “347 (VYAEVNSL; listed as Homo sapiens) [compound 347]”, the Peptide exchange (HLA-A*24) was “+++ (50%-75% = +++)”.
With “348 (IYLEHTESI; listed as Homo sapiens) [compound 348]” the Peptide exchange (HLA-A*24) was “+++ (50%-75% = +++)”.
For “349 (QYSIISNVF; listed as Homo sapiens) [compound 349]”, the Peptide exchange (HLA-A*24) was “+++ (50%-75% = +++)”.
For “350 (KYGNFIDKL; listed as Homo sapiens) [compound 350]”, the Peptide exchange (HLA-A*24) was “+++ (50%-75% = +++)”.
With “351 (IFHEVPLKF; listed as Homo sapiens) [compound 351]” the Peptide exchange (HLA-A*24) was “+++ (50%-75% = +++)”.
For “352 (QYGGDLTNTF; listed as Homo sapiens) [compound 352]”, the Peptide exchange (HLA-A*24) was “+++ (50%-75% = +++)”.
“355 (IYVTGGHLF; listed as Homo sapiens) [compound 355]” was tested, and the Peptide exchange (HLA-A*24) was “+++ (50%-75% = +++)”.
With “357 (QFITSTNTF; listed as Homo sapiens) [compound 357]” the Peptide exchange (HLA-A*24) was “++++ (>=75% = ++++)”.
“360 (VFSPDGHLF; listed as Homo sapiens) [compound 360]” was tested, and the Peptide exchange (HLA-A*24) was “+++ (50%-75% = +++)”.
For “361 (TYADIGGLDNQI; listed as Homo sapiens) [compound 361]”, the Peptide exchange (HLA-A*24) was “+++ (50%-75% = +++)”.
“362 (VYNYAEQTL; listed as Homo sapiens) [compound 362]” was tested, and the Peptide exchange (HLA-A*24) was “++ (20%-49% = ++)”.
In the case of “364 (KYLNENQLSQL; listed as Homo sapiens) [compound 364]”, the Peptide exchange (HLA-A*24) is reported as “+++ (50%-75% = +++)”.
For “366 (QYLELAHSL; listed as Homo sapiens) [compound 366]”, the Peptide exchange (HLA-A*24) was “+++ (50%-75% = +++)”.
In the case of “367 (LYQDHMQYI; listed as Homo sapiens) [compound 367]”, the Peptide exchange (HLA-A*24) is reported as “++ (20%-49% = ++)”.
In the case of “368 (KYQNVKHNL; listed as Homo sapiens) [compound 368]”, the Peptide exchange (HLA-A*24) is reported as “+++ (50%-75% = +++)”.
“369 (VYTHEVVTL; listed as Homo sapiens) [compound 369]” was tested, and the Peptide exchange (HLA-A*24) was “+++ (50%-75% = +++)”.
“370 (RFIGIPNQF; listed as Homo sapiens) [compound 370]” was tested, and the Peptide exchange (HLA-A*24) was “+++ (50%-75% = +++)”.
“371 (AYSHLRYVF; listed as Homo sapiens) [compound 371]” was tested, and the Peptide exchange (HLA-A*24) was “++ (20%-49% = ++)”.
For “372 (VYVIEPHSMEF; listed as Homo sapiens) [compound 372]”, the Peptide exchange (HLA-A*24) was “+++ (50%-75% = +++)”.
In the case of “373 (GYISNGELF; listed as Homo sapiens) [compound 373]”, the Peptide exchange (HLA-A*24) is reported as “+++ (50%-75% = +++)”.
With “374 (VFLPRVTEL; listed as Homo sapiens) [compound 374]” the Peptide exchange (HLA-A*24) was “++ (20%-49% = ++)”.
In the case of “375 (KYTDYILKI; listed as Homo sapiens) [compound 375]”, the Peptide exchange (HLA-A*24) is reported as “+++ (50%-75% = +++)”.
With “376 (VYTPVASRQSL; listed as Homo sapiens) [compound 376]” the Peptide exchange (HLA-A*24) was “+++ (50%-75% = +++)”.
“377 (QYTPHSHQF; listed as Homo sapiens) [compound 377]” was tested, and the Peptide exchange (HLA-A*24) was “+++ (50%-75% = +++)”.
“378 (VYIAELEKI; listed as Homo sapiens) [compound 378]” was tested, and the Peptide exchange (HLA-A*24) was “+++ (50%-75% = +++)”.
With “379 (VFIAQGYTL; listed as Homo sapiens) [compound 379]” the Peptide exchange (HLA-A*24) was “++++ (>=75% = ++++)”.
In the case of “381 (KYPASSSVF; listed as Homo sapiens) [compound 381]”, the Peptide exchange (HLA-A*24) is reported as “+++ (50%-75% = +++)”.
“382 (AYLPPLQQVF; listed as Homo sapiens) [compound 382]” was tested, and the Peptide exchange (HLA-A*24) was “+++ (50%-75% = +++)”.
In the case of “383 (RYKPGEPITF; listed as Homo sapiens) [compound 383]”, the Peptide exchange (HLA-A*24) is reported as “+++ (50%-75% = +++)”.
With “384 (RYFDVGLHNF; listed as Homo sapiens) [compound 384]” the Peptide exchange (HLA-A*24) was “+++ (50%-75% = +++)”.
For “385 (QYIEELQKF; listed as Homo sapiens) [compound 385]”, the Peptide exchange (HLA-A*24) was “+++ (50%-75% = +++)”.
For “386 (TFSDVEAHF; listed as Homo sapiens) [compound 386]”, the Peptide exchange (HLA-A*24) was “+++ (50%-75% = +++)”.
In the case of “387 (KYTEKLEEI; listed as Homo sapiens) [compound 387]”, the Peptide exchange (HLA-A*24) is reported as “+++ (50%-75% = +++)”.
For “388 (IYGEKTYAF; listed as Homo sapiens) [compound 388]”, the Peptide exchange (HLA-A*24) was “+++ (50%-75% = +++)”.
